{"source": "patent US6193954A", "about": "“Formulations for pulmonary delivery of dopamine agonists” (Abbott Laboratories, priority 1997, dated 2001)", "key": {"[1]": {"experiment": "Intratracheal administration of liquid formulation to tracheotomized dogs", "assay_type": "in vivo", "details": "0.1 mg/kg (approximately 0.5 ml), mannitol/water solution", "protocol": "The viscosity of the administered solution was similar to water and the dose was squirted into the tube via pressure from a syringe filled with the liquid formulation. This formlation would not be administered through nasal or mouth means.\nThe solution used in the intratracheal administration contained the following:\nCompound of example 1 6.9 mg/ml\nwith water for Injection as the solvent.\nThe above percentages may be varied by one of ordinary skill in the art to provide various dosages and/or ratios of the above excipients or compounds."}, "[2]": {"experiment": "Dispersion quality of MDI formulations (visual suspension quality after 24 hours)", "assay_type": "physicochemical", "details": "HFC-134a", "protocol": "A determination of the dispersion quality of several MDI formulations prepared with HFA-134a was conducted as follows: Pluronic® L44 (BASF Corp., Parsippany, N.J.), drug and excipients being formulated were combined in the amounts shown in appropriate transparent aerosol containers (vials). The vials were crimped using a 100 μL Valois metered valve and charged with approximately 10 mL of HFC-134a. The container was shaken for about 30 minutes to blend the ingredients. The dispersion quality in each preparation was evaluated visually after 24 hours using the following criteria:\nPoor: Phase separation; top phase clear, bottom phase containing solids\nFair: Partial phase separation; cloudiness in the top phase\nGood: Grainy appearance; no phase separation\nExcellent: Milky homogeneous appearance; no phase separation"}, "[3]": {"experiment": "Bioavailability of MDI compositions in dogs, inhalation vs intravenous (plasma diol)", "assay_type": "in vivo, beagle dog", "details": "dog", "excerpt": "The aerosol sprays were delivered anteriorly via a tracheal stoma in each subject animal (beagle dog)."}}, "note": "Where a name gives a salt, the structure may show the parent alone."}
{"smiles": "CCCc1cc2c(s1)CN[C@@H]1CCc3cc(OC(C)=O)c(OC(C)=O)cc3[C@@H]21", "note": "[Compound of Example 1, (5aR-trans)-4,5,6,7,11b-hexahydro-2-propylbenzo[f]thieno[2,3-c]quinoline-9,10-diol, diacetate (ester) hydrochloride]", "values": [{"measurement": "delivery on intratracheal administration", "setting": "[1]", "result": "effectively delivered"}, {"measurement": "Suspension Quality", "setting": "[2]; 20 mg drug, 0 Pluronic L44, 0 tocopherol acetate", "result": "good"}, {"measurement": "Suspension Quality", "setting": "[2]; 20 mg drug, 3 Pluronic L44, 0 tocopherol acetate", "result": "good"}, {"measurement": "Suspension Quality", "setting": "[2]; 20 mg drug, 3 Pluronic L44, 2 mg tocopherol acetate", "result": "good"}, {"measurement": "Suspension Quality", "setting": "[2]; 20 mg drug, 5 Pluronic L44, 0 tocopherol acetate", "result": "good"}, {"measurement": "Suspension Quality", "setting": "[2]; 20 mg drug, 5 Pluronic L44, 2 mg tocopherol acetate", "result": "good"}, {"measurement": "Suspension Quality", "setting": "[2]; 40 mg drug, 0 Pluronic L44, 0 tocopherol acetate", "result": "good"}, {"measurement": "Suspension Quality", "setting": "[2]; 40 mg drug, 3 Pluronic L44, 0 tocopherol acetate", "result": "good"}, {"measurement": "Suspension Quality", "setting": "[2]; 40 mg drug, 3 Pluronic L44, 2 mg tocopherol acetate", "result": "good"}, {"measurement": "Suspension Quality", "setting": "[2]; 40 mg drug, 5 Pluronic L44, 0 tocopherol acetate", "result": "good"}, {"measurement": "Suspension Quality", "setting": "[2]; 40 mg drug, 5 Pluronic L44, 2 mg tocopherol acetate", "result": "good"}, {"measurement": "lung absorption following inhalation delivery vs I.V. administration", "setting": "[3]; inhalation", "result": "occurs more efficiently than I.V. administration"}, {"measurement": "absorption upon delivery to the lungs", "setting": "[3]; suspended in HFC-134a", "result": "well absorbed upon delivery to the lungs"}]}
